How the values were obtained:
[1] = test system: CXCL10 mRNA (encoding IP-10); experiment: CXCL10 mRNA expression in influenza A virus-infected dTHP1 cells (RT-qPCR); type: cell-based, human; settings: dTHP1 infected with influenza A virus PR8M, MOI 1, 12 h after infection; increasing concentrations; compared among CA, IA, MA
[2] = test system: reactive oxygen species (ROS) in dTHP1 cells; experiment: Mitochondrial ROS in influenza A virus-infected dTHP1 cells (MitoSox Red, flow cytometry); type: cell-based, human; settings: dTHP1 infected with influenza A virus, 10 mM compound, 12 h after infection
Protocol: dTHP1 Cells were seeded at a density of 2×10^5 cells per well in a 12-well plate and infected with influenza A virus at an MOI of 1. Mitochondrial ROS were measured 12 h after infection. Cells were incubated for 5 min with medium containing 5 μM of MitoSox Red (mitochondrial superoxide indicator, Invitrogen) and were washed with PBS. Cells were then resuspended in cold PBS and mitochondrial ROS was measured via the phycoerythrin (PE) channel using a BD™ LSR-II flow cytometer.
As can be observed in FIG. 2, dTHP1 cells were infected with influenza A virus, incubated with 10 mM CA, IA, or MA, and reactive oxygen species (ROS) were measured by flow cytometry.

[3] = test system: influenza A virus (H1N1/34/PR/8M); type: cell-based
[4] = biological target: succinate dehydrogenase (SDH) (Homo sapiens, UniProt P31040); experiment: Preliminary data on binding to succinate dehydrogenase
succinate dehydrogenase (SDH), sequence (P31040 43-664): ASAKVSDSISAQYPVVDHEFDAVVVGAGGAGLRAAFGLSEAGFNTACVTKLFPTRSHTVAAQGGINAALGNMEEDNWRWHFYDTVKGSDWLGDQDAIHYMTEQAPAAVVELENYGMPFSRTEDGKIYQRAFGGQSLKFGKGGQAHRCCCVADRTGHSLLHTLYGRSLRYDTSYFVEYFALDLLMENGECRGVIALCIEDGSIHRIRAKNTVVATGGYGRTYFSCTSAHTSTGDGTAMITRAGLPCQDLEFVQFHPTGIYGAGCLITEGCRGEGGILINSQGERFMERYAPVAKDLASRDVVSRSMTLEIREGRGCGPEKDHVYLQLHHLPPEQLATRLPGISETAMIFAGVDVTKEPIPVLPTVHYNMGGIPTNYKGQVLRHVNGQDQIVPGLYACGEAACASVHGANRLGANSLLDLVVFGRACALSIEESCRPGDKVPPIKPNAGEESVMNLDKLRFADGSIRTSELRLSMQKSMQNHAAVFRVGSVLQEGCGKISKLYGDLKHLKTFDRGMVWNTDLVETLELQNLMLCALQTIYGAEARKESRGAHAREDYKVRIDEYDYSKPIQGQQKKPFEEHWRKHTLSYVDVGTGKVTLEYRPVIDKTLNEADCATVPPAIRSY
succinate dehydrogenase (SDH), sequence (P21912 29-280 partner): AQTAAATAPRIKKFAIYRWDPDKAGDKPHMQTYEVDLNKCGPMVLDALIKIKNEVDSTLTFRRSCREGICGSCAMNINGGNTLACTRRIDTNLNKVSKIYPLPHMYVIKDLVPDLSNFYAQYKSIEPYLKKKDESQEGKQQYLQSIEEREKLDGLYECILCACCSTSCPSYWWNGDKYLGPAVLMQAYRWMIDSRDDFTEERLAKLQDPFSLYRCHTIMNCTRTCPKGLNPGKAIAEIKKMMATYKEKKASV
succinate dehydrogenase (SDH), sequence (Q99643 30-169 partner): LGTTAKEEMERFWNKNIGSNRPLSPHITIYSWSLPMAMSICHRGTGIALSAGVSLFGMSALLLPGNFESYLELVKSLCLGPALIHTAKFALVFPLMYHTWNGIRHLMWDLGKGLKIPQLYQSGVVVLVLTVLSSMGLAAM
succinate dehydrogenase (SDH), sequence (O14521 57-159 partner): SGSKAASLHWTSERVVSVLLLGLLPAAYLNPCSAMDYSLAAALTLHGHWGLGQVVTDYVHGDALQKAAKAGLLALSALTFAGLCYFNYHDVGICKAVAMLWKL

phosphorylated STAT1 = experiment: STAT1 phosphorylation immunoblot in influenza A virus-infected A549 and dTHP1 cells; type: cell-based, human; settings: A549 and dTHP1 cells infected with influenza A virus; anti-P-STAT1 immunoblot
Protocol: A549 and dTHP1 cells were infected with influenza A virus and treated with CA, IA or MA.
2×10^5 dTHP1 cells were infected with influenza A virus (H1N1) strain PR8M at a multiplicity of infection of 1. 12 h after infection, cells were washed in buffer, pelleted, and protein extracts resolved by gel electrophoresis and transferred to a nylon membrane. Bands corresponding to phosphorylated Stat1 protein were visualized by enhanced chemiluminescense using specific anti-P-STAT1 primary antibody and […] as secondary antibody.
As can be observed from FIG. 3, A549 and dTHP1 cells were infected with influenza A virus and treated with CA, IA or MA. […] STAT1 phosphorylation is known to be associated with inflammation, and thus CA represents an effective substance in reducing inflammation.

[5] = test system: Nrf2 signaling (AKR1B10 mRNA); experiment: Induction of Nrf2 signaling: AKR1B10 mRNA in HaCaT cells (RT-qPCR); type: cell-based, human; settings: 12 hours treatment
Protocol: Induction was greatest by CA, intermediate by IA and lowest by MA.
The immortalized human keratinocyte cell line HaCaT was grown in RPMI 1640 medium (GIBCO Life Technologies, Karlsruhe, Germany) supplemented with 30% FCS, 100 μg/mL pen/strep, 500 μg/mL gentamycin and 1% each Glutamax and nonessential amino acid solution (NEAA; GIBCO Life Technologies, Karlsruhe, Germany). Cells were treated with the indicated concentrations of itaconate, mesaconate and citraconate for 12 hours. Cells were then washed in buffer, pelleted, and RNA was extracted for subsequent analysis of expression of AKR1B10, which is specifically activated by Nrf2 signaling in this cell line. AKR1B10 mRNA expression was determined by RT-qPCR.
Induction was greatest by CA compared to both IA and MA.

purified hACOD1 = biological target: T1, purified hACOD1 (Homo sapiens, UniProt A6NK06); experiment: hACOD1 enzyme activity in vitro assay, competitive inhibition; type: biochemical; settings: purified hACOD1, substrate cis-aconitate, competitive inhibition fit, pH 6.5, 37° C.; read-out: Inhibition constant (Ki)
T1 construct: made in house
T1 sequence (A6NK06 1-481): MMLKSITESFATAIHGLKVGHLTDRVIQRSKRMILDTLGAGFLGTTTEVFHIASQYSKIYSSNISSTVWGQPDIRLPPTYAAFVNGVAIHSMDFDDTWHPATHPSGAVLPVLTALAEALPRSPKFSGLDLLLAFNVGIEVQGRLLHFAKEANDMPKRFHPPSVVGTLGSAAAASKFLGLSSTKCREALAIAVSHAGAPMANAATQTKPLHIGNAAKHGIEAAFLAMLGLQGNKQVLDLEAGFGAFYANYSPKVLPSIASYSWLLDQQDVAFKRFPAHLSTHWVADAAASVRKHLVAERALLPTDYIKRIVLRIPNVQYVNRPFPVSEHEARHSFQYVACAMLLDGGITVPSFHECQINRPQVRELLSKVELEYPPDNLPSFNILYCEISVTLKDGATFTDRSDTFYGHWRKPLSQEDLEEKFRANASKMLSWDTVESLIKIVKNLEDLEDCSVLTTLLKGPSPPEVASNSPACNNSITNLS
Protocol: The activity of purified hACOD1 was measured in the presence of increasing concentrations of substrate and the five inhibitors. The data were globally fitted to the Michaelis-Menten equation for competitive inhibition.
The activity of purified hACOD1 was measured in the presence of increasing concentrations of substrate and the five inhibitors. The data was globally fitted to the Michaelis-Menten equation for competitive inhibition.
The compounds were dissolved in water, neutralized with NaOH and stored at −20° C. For the assay, 125 μL 0.2 M sodium phosphate buffer, pH 6.5, was mixed on ice with 5 μL enzyme, 10 μl inhibitor (or 10 μl water) and 10 μL substrate (cis-aconitic acid). The following combinations of enzyme amount and substrate concentration were used for CA: 2 μg enzyme and 0.1 mM substrate, 2 μg and 0.3 mM, 3 […] and 1 mM, 5 μg and 3.0/10.0 mM. For the other inhibitors, 2 μg enzyme and 0.1/0.2/0.5 mM substrate, 3 μg and 1.0/2.0 mM, 5 μg and 5.0/10.0 mM. Incubation for 10 min at 37° C. was immediately followed by heat inactivation at 95° C. for 3 min. Protein precipitate was pelleted by centrifugation for 1 h. Supernatants were acidified with 100 μL 100 mM H3PO4.

ACOD1 = biological target: T2, ACOD1 (Homo sapiens, UniProt A6NK06); experiment: Cellular ACOD1 inhibition: intracellular itaconate in PMA-differentiated THP1 stimulated with LPS/IFNγ (HPLC-MS/MS); type: cell-based; settings: compared with citraconic acid
T2 construct: THP1 were differentiated with PMA and then stimulated with LPS/IFNγ for 24 hours; endogenous in cells; host or cells: THP1 (PMA-differentiated, LPS/IFNγ-stimulated)
T2 sequence (A6NK06 1-481): T1 sequence (A6NK06 1-481)
Protocol: FIG. 9: Ethyl homologue of the methyl group of citraconate enhances ACOD1 inhibition in a cellular assay. […] ACOD1 activity was assessed by measuring intracellular itaconate concentrations by HPLC-MS/MS as described in (Winterhoff,
Chen et al Metabolites 2021). IC50=inhibitory concentration 50%; CC50 =cytotoxic concentration 50%; SI=selectivity index=CC50/IC50.
Methylation of the […] of citraconate thus enhances ACOD1 inhibition in a cellular assay. […] ACOD1 activity was assessed by measuring intracellular itaconate concentrations by HPLC-MS/MS as described in Winterhoff, Chen et al (Metabolites 2021).

[6] = test system: mitochondrial ROS in NRF2−/− human vascular endothelial cells; experiment: Mitochondrial ROS in human vascular endothelial cells infected with human coronavirus 229E (flow cytometry); type: cell-based; settings: NRF2−/− cells infected with human coronavirus 229E, 24 h after infection, co-incubation
Protocol: FIG. 10: (Z)-2-Ethylbut-2-enedioic acid maintains anti-oxidative properties. Wild-type or NRF2−/−human vascular endothelial cells were infected with human coronavirus 229E (a low pathogenic, seasonal strain), and mitochondrial ROS levels were measured by flow cytometry 24 h after infection.
Maintenance of anti-ROS activity of (Z)-2-ethylbut-2-enedioic acid (“ethylcitraconic acid”; Formula VIII) is shown in a model of infection of cells by a human coronavirus 229E, a low pathogenic CoV strain. Despite the methylation of CA evident in Formel VIII (a methylation that could theoretically lead to loss of electrophilicity), the compound (Z)-2-Ethylbut-2-enedioic acid maintains anti-oxidative properties. Wild-type or NRF2−/−human vascular endothelial cells were infected with human coronavirus 229E (a low pathogenic, seasonal strain), and mitochondrial ROS levels were measured by flow cytometry 24 h after infection.

C/C(=C/C(=O)O)C(=O)O [citraconic acid]
Reduction of CXCL10 mRNA [1]: greatest | Reduction of reactive oxygen species (ROS) [2]: significant reduction | Viral RNA (hemagglutinin [HA] mRNA) [3]: not influenced | Viral titres in culture supernatants [3]: significantly reduced | Direct binding to SDH [4]: does not directly bind SDH | STAT1 phosphorylation (phosphorylated STAT1): reduced STAT1 phosphorylation | Induction of AKR1B10 mRNA (Nrf2 signaling) [5]: greatest

C=C(CC(=O)O)C(=O)O [itaconic acid]
Reduction of reactive oxygen species (ROS) [2]: significant reduction | STAT1 phosphorylation (phosphorylated STAT1): reduced STAT1 phosphorylation | Induction of AKR1B10 mRNA (Nrf2 signaling) [5]: intermediate

C/C(=C\C(=O)O)C(=O)O [mesaconic acid]
STAT1 phosphorylation (phosphorylated STAT1): reduced STAT1 phosphorylation | Induction of AKR1B10 mRNA (Nrf2 signaling) [5]: lowest

CC1CCC(C(=O)O)=C1C(=O)O (centres unmarked) [3-Methyl-cyclopent-1-ene-1,2-dicarboxylic acid]
Ki (purified hACOD1): 0.335 µM

O=C(O)/C=C(\C(=O)O)c1ccccc1 [2-phenylmaleic acid, 2-Phenylmaleic acid]
Ki (purified hACOD1): 60 ± 30 µM

O=C(O)C1=C(C(=O)O)CCC1 [cyclopent-1-ene-1,2-dicarboxylic acid, Cyclopent-1-ene-1,2-dicarboxylic acid]
Ki (purified hACOD1): 39 ± 2 µM

CC/C(=C/C(=O)O)C(=O)O [(Z)-2-ethylbut-2-enedioic acid]
Cytotoxicity (ACOD1): remains the same | Selectivity index (CC50/IC50) (ACOD1): increases | ACOD1 inhibition in cellular model (ACOD1; dTHP1, LPS/IFNγ 24 hours, intracellular itaconate): increased ACOD1 inhibition | Mitochondrial ROS levels [6]: reduced to levels seen in uninfected WT cells | Ki (purified hACOD1): 0.235 ± 0.021 µM
